Reference: US20120301443A1, “METHODS FOR DEVELOPING ENDOTHELIAL CELLS FROM PLURIPOTENT CELLS AND ENDOTHELIAL CELLS DERIVED” (CORNELL UNIVERSITY, priority 2009, published 2012)

Key:
Format in all cases: cell-based, human
hVPr-GFP hESCs = assay: Endothelial (EC) differentiation of hVPr-GFP hESC embryoid bodies (phase 1)
Protocol: Human VPr-GFP hESCs were grown to confluence on Matrigel™ (BD Bioscience) and then incubated in 5 units/ml dispase (Gibco) until colonies were completely detached from the substrate. Human VPr-GFP EBs were washed and cultured in hESC medium on ultra low attachment plates (Corning) and cultured in the conditions described, with replacement of cytokine supplemented medium every 48 hours. Embryoid bodies were fixed in 4% paraformaldehyde and frozen for cryosectioning and staining.
Embryoid bodies were generated and cultured in base hESC medium, supplemented with the cytokines as shown. Briefly, embryoid bodies were generated in hESC base medium without FGF-2. On the morning following generation of EBs (day 0), medium was supplemented with 20 ng/ml BMP4 (R&D) (removed at day 7); on day 1, medium was supplemented with 10 ng/ml ActivinA (R&D) (removed at day 4); on day 2, medium was supplemented with 8 ng/ml FGF-2 (Peprotech) (remained for the duration of culture); on day 4, EBs were transferred to adherent conditions on Matrigel™-coated plates and medium was supplemented with 25 ng/ml VEGF-A (Peprotech) (remained for the duration of culture); […] duration. Cultures were dissociated using 0.5% Trypsin/EDTA (Gibco) or Accutase (eBioscience). Absolute yield as well as ratio of input hESCs to differentiated ECs was calculated from the number of live cells recovered from differentiation cultures at days 0, 14 and 20. Purified ECs could be frozen and thawed in 10% DMSO with greater than 90% recovery.
(§1) ECs were isolated from differentiation cultures using Magnetic Activated Cell Sorting (MACS; Miltenyi Biotech) with an antibody against CD31 conjugated to magnetic microbeads. Alternatively, cells were isolated by virtue of the expression of GFP/YFP or a fluorophore conjugated antibody to human CD31 or VEGFR2 (BD) using a FACS AriaII (BD).
Total RNA was prepared from cultured cells using the RNeasy™ extraction kit (Qiagen) and reverse transcribed using Superscript II reverse transcriptase (Invitrogen) according to the manufacturer's instructions. Relative quantitative PCR was performed on a 7500 Fast Real Time PCR System (Applied Biosystems) using either TaqMan PCR mix along with Id1 and β-actin primer pairs, or SYBR Green PCR mix (Applied Biosystems). […]
This EC reporter hESC line was also used to monitor the development of a chemically defined, serum-free methodology that could effectively augment vascular differentiation, consisting of two phases. […] Although these growth conditions promoted formation of hVPr-GFP^+ structures, the yield of dissociated hESC-derived ECs obtained by fluorescence-activated cell sorting (FACS) was low, and the few isolated ECs could not be expanded without the majority of derivatives assuming a non-EC phenotype. […]

hESC-derived ECs [1] = assay: Expansion of isolated hESC-derived ECs with or without SB431542 (phase 2)
Protocol: (§2) Embryoid bodies were generated and cultured in base hESC medium, supplemented with the cytokines as shown. Briefly, embryoid bodies were generated in hESC base medium without FGF-2. On the morning following generation of EBs (day 0), medium was supplemented with 20 ng/ml BMP4 (R&D) (removed at day 7); on day 1, medium was supplemented with 10 ng/ml ActivinA (R&D) (removed at day 4); on day 2, medium was supplemented with 8 ng/ml FGF-2 (Peprotech) (remained for the duration of culture); on day 4, EBs were transferred to adherent conditions on Matrigel™-coated plates and medium was supplemented with 25 ng/ml VEGF-A (Peprotech) (remained for the duration of culture); on day 7, SB431542 (Tocris) was added at 10 μM concentration and remained for indicated duration. Cultures were dissociated using 0.5% Trypsin/EDTA (Gibco) or Accutase (eBioscience). Absolute yield as well as ratio of input hESCs to differentiated ECs was calculated from the number of live cells recovered from differentiation cultures at days 0, 14 and 20. Purified ECs could be frozen and thawed in 10% DMSO with greater than 90% recovery.
as §1
Cryosections were immunocytochemically stained as previous described (James et al., Dev. Biol. 295: 90-102 (2006)). Briefly, samples were permeabilized in PBST and blocked in 5% donkey serum. Samples were incubated for 2 hours in primary antibodies blocking solution, washed 3 times in PBS and incubated in CY3-conjugated secondary antibodies (Jackson Laboratories) for 1 hour. Following washing some sections were counterstained for nucleic acids by TO-PRO3 (Invitrogen) before mounting and imaging by confocal microscopy. Primary antibodies included CD31 (DAKO), CD34 (DAKO), Phospho-HistoneH3, Smooth Muscle Actin (SMA) (DAKO) and VE-cadherin (R&D). […]

hESC-derived ECs [2] = assay: Absolute yield and ratio of input hESCs to differentiated ECs over phases 1 and 2
Protocol: as §2

[3] = tested on: Id1-YFP hESC-derived CD31+ cells; assay: Id1-YFP hESC-derived CD31+ cells expanded with and without the TGFβ-inhibitor, flow cytometry
Protocol: A bacterial artificial chromosome (BAC) was modified in order to place yellow fluorescent protein (YFP) under control of the endogenous human Id1 promoter locus. This reporter construct was electroporated into the H9 hESC line, selected for BAC integration using antibiotic resistance and subcloned. Clones were assessed and selected based on expression of YFP in Id1 hESC derivatives following spontaneous differentiation. […] To track Id1 expression in live hESC differentiation cultures, a stable BAC transgenic hESC-line expressing yellow fluorescent protein driven by the Id1-promoter (Id1-YFP) (Example 3 herein) was used (FIG. 3A-C). Differentiated ECs were isolated at day 14 from Id1-YFP cultures (FIG. 1d), sub-fractionating the CD31+ population into Id1-YFP high- and low-expressing cells, and these populations were serially expanded for seven days with and without the TGFβ-inhibitor (FIG. 3B).

[4] = ECs isolated at day 14, 5 days with vs without SB431542

## NC(=O)c1ccc(-c2nc(-c3ccc4c(c3)OCO4)c(-c3ccccn3)[nH]2)cc1 [SB431542, 4-[4-(1,3-benzodioxol-5-yl)-5-(2-pyridinyl)-1H-imidazol-2-yl]benzamide]
hVPr-GFP hESCs; QPCR, normalized to ACTB, time course of differentiation
  Oct3/4 and brachyury transcripts: accelerated the reduction
hVPr-GFP hESCs; SB431542 from day 0
  hVPr-GFP+ ECs when inhibitor is included from the onset of differentiation: absence of hVPr-GFP+ ECs
hVPr-GFP hESCs; beginning at 9 days
  hVPr-GFP+CD31+ ECs: significant increase
hVPr-GFP hESCs; time course of differentiation
  expression of SMA: reducing expression of SMA
hESC-derived ECs [1]; ECs isolated at day 14, 5-day culture period with vs without SB431542
  cell yield of isolated ECs: yielded more cells
hESC-derived ECs [1]; [4]
  cell proliferation, percentage of Phospho-HistoneH3+ (PHH3) mitotic ECs: increased cell proliferation
  percentage of total population retaining α-SMA− CD31+ VEcadherin+ phenotype: higher percentage
hESC-derived ECs [2]; TGFβ inhibition in phase 1 and 2, 20 days, vs control culture conditions
  expansion in total number of vascular-committed hESC-derived ECs: 36 fold
hESC-derived ECs [2]; after phase 1 and phase 2 TGFβ-inhibition
  population maintaining EC identity: 95%
hESC-derived ECs [2]; over the course of 20 days
  ratio of ECs generated from every one hESC input: 7.4 ECs per input hESC
[3]; relative to unstimulated cells
  mean fluorescence intensity of CD31: decreased
  percentage of the CD31+ population: increased
[3]; seven days expansion with and without TGFβ-inhibitor
  Id1 expression (Id1-YFP): up-regulation of Id1 expression
